The values that follow come from PMC6927504, “Screening of House Dust from Chinese Homes for Chemicals with Liver X Receptors Binding Activities and Characterization of Atherosclerotic Activity Using an in Vitro Macrophage Cell Line and ApoE^−/− Mice” (Environmental Health Perspectives, 2019).

Series [1] deals with RAW264.7 macrophages. The series can be described thus: CellTiter-Glo Luminescent Cell Viability Assay. Conditions: 24-h exposure at 1–20,000 nM. In kind it is cell-based. As to the method: RAW264.7 cells were obtained from the National Infrastructure of Cell Line Resource of Beijing, China, and the cells used for the experiment were cultured for at least three passages. Dulbecco’s Modified Eagle’s Medium (DMEM)-F12 medium containing 10% fetal bovine serum (FBS) was employed to culture the RAW264.7 cells. RAW264.7 cells were incubated at 37°C with 5% carbon dioxide. The RAW264.7 cells were plated at 2.5×10^5 cells/well (6-well plates), 6.0×10^4 cells/well (24-well plates), and 10^4 cells/well (96-well plates). The RAW264.7 cells were plated and grown overnight; then the medium was removed and fresh DMEM-F12 contained with 0.1% DMSO (control; n=3 ) or TPHP at the concentrations of 1–20,000 nM ( n=3 per group) was added. […] Then the cells were used for the quantitative reverse transcription (qRT)-PCR, cellular cholesterol efflux assay, and foam cell formation experiment.
Cell viability was assessed using the CellTiter-Glo® Luminescent Cell Viability Assay based on the manufacturer’s instructions ( n=3 per group). Luminescence was assessed using an LB 941 TriStar multimode microplate reader (Berthold Technologies).
A general note: Cellular ATP, detected with luciferase, serves as a proxy for viable cell number.

Series [2] has as its system ABCG1. The series can be described thus: qRT-PCR of ABCG1 in peritoneal macrophages isolated from exposed C57BL/6 mice. In kind it is in vivo, mouse. To be noted: 200 mg/kg BW oral gavage for 7 d, control set to 1, p<0.01. Here is the method: Total RNA was isolated from RAW264.7 cells and mouse peritoneal macrophages using TRIzol reagent according to the manufacturer’s instructions. Then a Nanovue Plus™ spectrophotometer (GE Healthcare Life Science) was used to analyze the concentration, quality, and purity of the RNA. Total RNA ( 1μg ) was mixed with oligo deoxythymine (dT) ( 1μL ) at 70°C for 5 min and then combined with a mixture containing Moloney murine leukemia virus (MMLV) reverse transcriptase ( 1μL ), deoxy-ribonucleoside triphosphate (dNTP) ( 1.25μL ), Recombinant RNasin® Ribonuclease Inhibitor (Promega) ( 0.65μL ), and MMLV buffer ( 5μL ) at 42°C for 60 min. The SYBR® Green PCR Kit (TOYOBO) was used for RT-PCR analysis. Real-time fluorescence detection was performed using the StepOnePlus™ sequence detection system (Applied Biosystems). […]
All experiments related to animals were approved by the institutional animal care and use committee of Peking University and followed the guidelines for animal experiments of the university as well as for experimental animals in China. […] Body weight (BW) was measured every week during the dosing period. […] Considering that this study assessed the effects of short-term exposure to TPHP, whereas humans are exposed to TPHP over a lifelong period, the present study used exposure doses that were higher than that of human exposure from house dust. […]
In general terms: Real-time PCR tracks product formation cycle by cycle.

On to `O=P(Oc1ccccc1)(Oc1ccccc1)Oc1ccccc1` [TPHP, triphenyl phosphate], for which the Cell viability entry in series [1] is “no significant loss of cell viability”. In series [2], the “ABCG1 gene expression in peritoneal macrophages relative to control” value came out at 0.30±0.08 fold.
